Measurements as given in patent US7985072B2, “Method and apparatus for tooth rejuvenation and hard tissue modification” (Rejuvedent LLC, priority 2005, dated 2011).

Test system: gingival tissue
Assay: Safe treatment time (STT): onset of discomfort on subjects' gingival tissue
Assay type: in vivo, human
Set-up: key to effect of discomfort on gingival tissue: “−” means that the subject experienced no discomfort; “+” means that some discomfort was reported
Method: It was discovered, that a high concentration and low pH acid can work well for exposure times long enough to produce significant changes to hard tissue. The use of high concentration, edible acids for treatment of hard tissues is limited by the action of such acids on soft tissues. […] The typical application time for the desired depth of etching can be from 1-5 minutes for home use, and up for up to 10-20 minutes for professional use. The safe treatment time (STT) is defined as the time during which acid can interact with the soft tissues without damaging them. The STT depends on the acid concentration and the temperature, i.e. STT (pH,T), where pH is the pH of the acid, and T is the temperature of the acid. […] The experiment was conducted on subjects with healthy oral tissues. Prior to treatment, the acid was heated to a control temperature T, using a thermostat, and a small volume (approximately 5×10^−3 ml) of acid was applied to an area of the subject's gingival tissue. The thermo-relaxation time of such a volume is approximately 5-10 seconds. To provide for a relatively constant temperature on the tissue surface, the acid was reapplied at the same temperature T to the same area every 5-10 seconds. This procedure was repeated until the subject reported discomfort. A feeling of discomfort always precedes tissue damage. Therefore, the time of the onset of discomfort can be used as an estimate of the STT with a certain safety margin.

safe treatment time (STT) (50° C., pH of 1.5): greater than 8 minutes | effect of discomfort on gingival tissue (pH=1.5, T +20 °C, t 1 min): − | effect of discomfort on gingival tissue (pH=1.5, T +20 °C, t 2 min): − | effect of discomfort on gingival tissue (pH=1.5, T +20 °C, t 3 min): − | effect of discomfort on gingival tissue (pH=1.5, T +20 °C, t 4 min): − | effect of discomfort on gingival tissue (pH=1.5, T +20 °C, t 5 min): − | effect of discomfort on gingival tissue (pH=1.5, T +20 °C, t 6 min): − | effect of discomfort on gingival tissue (pH=1.5, T +20 °C, t 7 min): − | effect of discomfort on gingival tissue (pH=1.5, T +20 °C, t 8 min): − | effect of discomfort on gingival tissue (pH=1.5, T +20 °C, t 9 min): − | effect of discomfort on gingival tissue (pH=1.5, T +20 °C, t 10 min): − | effect of discomfort on gingival tissue (pH=1.5, T +20 °C, t 11 min): − | effect of discomfort on gingival tissue (pH=1.5, T +20 °C, t 12 min): + | effect of discomfort on gingival tissue (pH=1.5, T +36 °C, t 1 min): − | effect of discomfort on gingival tissue (pH=1.5, T +36 °C, t 2 min): − | effect of discomfort on gingival tissue (pH=1.5, T +36 °C, t 3 min): − | effect of discomfort on gingival tissue (pH=1.5, T +36 °C, t 4 min): − | effect of discomfort on gingival tissue (pH=1.5, T +36 °C, t 5 min): − | effect of discomfort on gingival tissue (pH=1.5, T +36 °C, t 6 min): − | effect of discomfort on gingival tissue (pH=1.5, T +36 °C, t 7 min): − | effect of discomfort on gingival tissue (pH=1.5, T +36 °C, t 8 min): − | effect of discomfort on gingival tissue (pH=1.5, T +36 °C, t 9 min): − | effect of discomfort on gingival tissue (pH=1.5, T +36 °C, t 10 min): + | effect of discomfort on gingival tissue (pH=1.5, T +50 °C, t 1 min): − | effect of discomfort on gingival tissue (pH=1.5, T +50 °C, t 2 min): − | effect of discomfort on gingival tissue (pH=1.5, T +50 °C, t 3 min): − | effect of discomfort on gingival tissue (pH=1.5, T +50 °C, t 4 min): − | effect of discomfort on gingival tissue (pH=1.5, T +50 °C, t 5 min): − | effect of discomfort on gingival tissue (pH=1.5, T +50 °C, t 6 min): − | effect of discomfort on gingival tissue (pH=1.5, T +50 °C, t 7 min): − | effect of discomfort on gingival tissue (pH=1.5, T +50 °C, t 8 min): + | effect of discomfort on gingival tissue (pH=1.5, T +70 °C, t 1 min): − | effect of discomfort on gingival tissue (pH=1.5, T +70 °C, t 2 min): − | effect of discomfort on gingival tissue (pH=1.5, T +70 °C, t 3 min): − | effect of discomfort on gingival tissue (pH=1.5, T +70 °C, t 4 min): − | effect of discomfort on gingival tissue (pH=1.5, T +70 °C, t 5 min): − | effect of discomfort on gingival tissue (pH=1.5, T +70 °C, t 6 min): + | effect of discomfort on gingival tissue (pH=1.5, T +90 °C, t 1 min): − | effect of discomfort on gingival tissue (pH=1.5, T +90 °C, t 2 min): − | effect of discomfort on gingival tissue (pH=1.5, T +90 °C, t 3 min): +
Structure (SMILES): O=C(O)CC(O)(CC(=O)O)C(=O)O [citric acid]
damage to soft tissues (high concentrations and high temperatures (up to 90° C.)): did not cause damage to soft tissues
